Patent US20100292306A1, “Compositions And Methods For The Treatment Of Muscular Dystrophy” (priority 2005, published 2010)
Entries after “also recorded” stand apart in the source; their conditions may differ.

Experiments:
[1] = test system: mdx triangularis sterni (TS) muscle; assay: Histological cross sections of mdx TS muscle (fiber number, diameter, density, myonuclei, centronucleation); format: in vivo, mdx mice
Text: To further examine the morphological effects of chronic treatment with inhibitors of the NFκB pathway, the fixed TS preparations used in these investigations on mature mdx mice (Series 2 through 4) were sectioned and stained with hematoxylin and eosin using standard histological procedures (FIG. 7A, 7B, 7C). […] PDTC treatment produced a significant (p<0.001) reduction in diameter in the caudal region and a significant (p<0.001) increase in diameter in the middle region in comparison to corresponding values from the vehicle-injected mdx mice (FIG. 9).
To determine the density of muscle fibers in the mdx TS muscle, individual sections representing all of the fibers within each TS muscle were evaluated by determining the average number of fiber cross sections per unit length of the TS muscle where the length is defined along the axis orthogonal to the principal fiber axis. This procedure was performed for all of the available TS muscles initially used in the Series 2 and 3 PDTC investigations.
Determination of the total number of myonuclei across all regions of the mature nondystrophic, mdx-vehicle, and mdx-PDTC treated TS muscles in conjunction with determination of the total number of fiber cross sections in the same preparations provided an immediate measure of the number of myonuclei per sectioned fiber (FIG. 12).
These morphological results provide direct evidence that inhibitors of the NFκB pathway may have beneficial effects in treating both young and mature dystrophic preparations.

[2] = test system: mdx triangularis sterni (TS) muscle; assay: Percent fibers and percent striated fibers in photographed areas of fixed mdx TS muscle; format: in vivo, mdx mice
Protocol: To evaluate the effect of various chemical agents on animal models of MD, experimental male and female mdx mice may be injected intraperitoneally (ip) with various chemicals at different dosage. In the case of pyrrolidine dithiocarbamate (PDTC) (50-75 mg/kg of PDTC (obtained from Sigma) may be dissolved in a saline solution (HEPES-Ringer; in mM: 147.5 NaCl, 5 KCl, 2 CaCl2, 11 glucose, 5 HEPES, pH 7.35) for injection. […] The mice may be sacrificed after 1-24 months from the beginning of treatment to determine the effect of the treatment with the chemicals.
In one embodiment, the treatment effect may be evaluated by comparing the morphological results between 3 regions of the triangularis sterni (TS); the caudal third of the muscle extending toward the xiphoid process, the middle third, and the cephalad third of the muscle. This procedure is adopted because there are obvious differences between these regions in the extent of pathology and the muscle thickness in the mdx TS (not clearly seen in the nondystrophic TS) even when examining the muscle at low power (e.g., 4×). Results from animals that die during the experimental time frame (both saline injected and PDTC treated) are typically excluded from the study.
Morphological assessment of total fiber density and density of striated fibers may be conducted as described in the following text. Immediately after completing the resting potential measurements, the minimally stretched TS muscle preparations attached to the dissecting hooks may be fixed overnight in 2% glutaraldehyde (0.1 M cacodylate buffer) and subsequently washed several times in 0.1 M cacodylate. Before removing the preparation from the recording chamber, microphotographs of approximately 24 randomly sampled areas may be obtained at 200-300× magnification in caudal, middle, and cephalad regions of the TS. In the initial studies, a smaller number of photographs may be obtained over the middle portion of the TS muscle.
Each preparation may be illuminated using bright-field optics to minimize depth of focus issues in visualizing muscle fiber striations. Since the mdx TS muscle is a flat and thin preparation, all the fibers in each area are roughly within the same focal plane. However, small variations in depth of focus may produce small variations in the appearance of striated fibers. Such effects may be minimized by routinely adjusting the plane of focus to maximize the number of striated fibers in each photographed area. The density of muscle fibers and the density of striated fibers may then be evaluated for each sampled area by drawing a line orthogonal to the principal axis of the TS muscle fibers across the entire viewing area of each photograph. The percentage of the length of this line that covered muscle fibers and the percentage of this line that covered striated muscle fibers (defined as having striations over at least 50% of the observed length) may be used to determine the percentage of muscle fibers and striated muscle fibers, respectively, for each photographed muscle area. Control experiments using these procedures on adult nondystrophic TS muscles (N=37 areas, 2 TS muscles at 19 and 27 months) may yield average values of 99.1±0.5 (SE) percent fibers and 96.7±1.2 percent striated fibers with no regional differences across the caudal, middle, and cephalad thirds of the muscle (FIG. 3).
In freshly isolated preparations of mdx TS muscle, hypercontraction and myofibrillar disorganization are expressed as a decrease in the appearance of striated muscle fibers (See e.g., FIG. 2A) and fiber loss and fibrosis appear as a decrease in the number of fibers in individual areas of the TS (See e.g., FIG. 2B; cf. Carlson et al., 2003 and Cullen and Fulthorpe, 1975). […]

[3] = Series 2 and 3, vs age-matched vehicle
[4] = mature mdx, vs vehicle-injected, p<0.001

## S=C(S)N1CCCC1 [PDTC, pyrrolidine dithiocarbamate]
[1]; [3]
  fiber number, caudal region: substantial increases
  fiber number, cephalad region: an increase
  fiber number, middle region: no change
[1]; Series 2 and 3, cephalad and caudal regions, p<0.05
  number of fibers per unit length: increased
[1]; Series 2 and 3 mature mdx, vs age matched vehicle, p<0.001
  number of myonuclei per fiber: increase
[1]; chronic PDTC, mature mdx
  fiber number or density, middle region: without altering
[1]; individual mdx mouse, 50 mg/kg on 238 of 258 days from 5 to 13.5 months, vs 14.6 month vehicle treated, 50 mg/kg
  density of fibers / loss of muscle fibers: substantial improvements; also recorded: decreases the loss
[1]; mature mdx mice, Series 2 and 3, p<0.001
  percent centronucleation: reduced; also recorded: significantly decreased
[1]; [4]
  fiber diameter, caudal region: reduction
  fiber diameter, middle region: increase
[2]; 50 mg/kg ip 48-76 days, Series 2 (11.5-18.5 months) and Series 3 (21.5-22 months)
  density of fibers in the TS: increases
[2]; Series 1, vs untreated, P<0.01
  increase in the percentage of striated muscle fibers: 3 fold
[2]; Series 1: 50-75 mg/kg ip daily 27-30 days, 8.5-9 months at sacrifice, middle region, FIG. 2C
  striated fibers in photographed area: approximately 82%
[2]; Series 1: 50-75 mg/kg ip daily 27-30 days, same in untreated
  average percent fibers: about 80%
[2]; Series 1: 50-75 mg/kg ip, 27-30 days, 8.5-9 months at sacrifice
  density of striated fibers: increases
[2]; Series 2: 50 mg/kg daily, 11.5-18.5 months at sacrifice, middle third, P<0.01 vs saline
  increase in the percent of fibers: 1.7 fold
[2]; Series 2, P<0.05 vs saline
  overall percent of fibers across all regions: significant increase
[2]; Series 2, middle region, P<0.01 vs saline
  increased percent of striated fibers: 8.4 fold
[2]; Series 3 (22 months), caudal, middle and overall total of sampled areas
  increase in the percent of striated fibers: 22- to 68 fold
[2]; Series 3: aged mdx mice (22 months), 50 mg/kg daily, across all regions, P<0.01 or P<0.001
  increases in the density of muscle fibers: 4.1- to 11.1 fold
[2]; Series 4: individual mdx mouse, 50 mg/kg on 238 of 258 days, 13.5 months of age, N=25
  overall percent fibers: 82.2±2.6%
[2]; Series 4: individual mdx mouse, 50 mg/kg on 238 of 258 days, 13.5 months of age, N=25 areas
  overall percent striated fibers: 40.4±2.6%
[2]; Series 4: longer administration beginning in 5 month mdx mice, middle and cephalad regions, P<0.001
  effect of treatment on the percent of striated fibers: significant effect
[2]; daily PDTC, Series 2 and Series 3
  density of striated TS fibers: increases
